Assay results published in ChEMBL document CHEMBL4270527, “Discovery of phenylsulfonylfuroxan derivatives as gamma globin inducers by histone acetylation” (Eur J Med Chem, 2018).
Each block holds one compound with its values, some of them ahead of it. The source made the active and inactive calls. No cut-off for these calls is given here.

Columns and labels:
Macrophage [1] = test: Cytotoxicity against LPS-induced Swiss albino mouse macrophages assessed as cell viability at 6.2 to 50 uM after 24 hrs by MTT assay relative to control; assay type: functional
Mus musculus = test: Antinociceptive activity in Swiss albino mouse assessed as decrease in number of acetic acid-induced abdominal constriction at 100 umol/kg, po pretreated for 1 hr followed by acetic-acid challenge for 10 mins measured for 20 mins relative to control; assay type: functional; parameters: scale not given: the % may be the effect or the level left
Platelet = test: Antiplatelet activity in Wistar rat platelet rich plasma assessed as inhibition of ADP-induced platelet aggregation at 100 uM pretreated for 1 min followed by ADP addition by turbidimetric method relative to control; assay type: functional
CHO-K1 [2] = test: Mutagenicity in CHOK1 cells assessed as nuclear division index at 0.3 ug/ml after 24 hrs by Giemsa staining based microscopic analysis (reference value: 1.701 +/- 0.002); assay type: toxicity, cell-based, Cricetulus griseus; conditions: chinese hamster, cho-k1, 24 h
Macrophage [3] = test: Inhibition of LPS-induced TNFalpha production in Swiss albino mouse macrophages at 50 uM after 24 hrs by ELISA relative to control; assay type: functional
CHO-K1 [4] = test: Genotoxicity in CHOK1 cells assessed as increase in tail moment at 25 to 100 uM after 24 hrs by commet assay; assay type: toxicity, cell-based, Cricetulus griseus; conditions: chinese hamster, cho-k1, 24 h
CHO-K1 [5] = test: Mutagenicity in CHOK1 cells assessed as frequency of micronucleus at 25 to 100 uM after 24 hrs by Giemsa staining based microscopic analysis; assay type: toxicity, cell-based, Cricetulus griseus; conditions: chinese hamster, cho-k1, 24 h
[6] = target: MAP kinase p38 (Homo sapiens) (UniProt O15264+Q15759+Q16539+P53778); test: Activation of p38 MAPK phosphorylation in human K562 cells at 6.7 to 100 uM by Western blot analysis; assay type: cell-based
K562 [7] = test: Activation of histone H3 acetylation in human K562 cells at 6.7 to 100 uM after 24 hrs by Western blot analysis; assay type: cell-based
[8] = target: Histone H4 (Homo sapiens) (UniProt P62805); test: Activation of histone H4 acetylation in human K562 cells at 6.7 to 100 uM after 24 hrs by Western blot analysis; assay type: cell-based
K562 [9] = test: Activation of histone H3/H4 acetylation in human K562 cells assessed as increase in […] expression at 25 to 100 uM after 96 hrs by Western blot analysis; assay type: cell-based
CHO-K1 [10] = test: Cytotoxicity against CHOK1 cells assessed as reduction in cell viability at 100 uM after 24 hrs by XTT assay relative to control; assay type: cell-based, Cricetulus griseus; conditions: chinese hamster, cho-k1, 24 h
CHO-K1 [11] = test: Genotoxicity in CHOK1 cells assessed as increase in commet tail at 100 uM after 24 hrs by commet assay; assay type: toxicity, cell-based, Cricetulus griseus; conditions: chinese hamster, cho-k1, 24 h
CHO-K1 [12] = test: Cytotoxicity against CHOK1 cells assessed as reduction in cell viability at 25 uM after 24 hrs by XTT assay relative to control; assay type: cell-based, Cricetulus griseus; conditions: chinese hamster, cho-k1, 24 h
CHO-K1 [13] = test: Mutagenicity in CHOK1 cells assessed as nuclear division index at 100 uM after 24 hrs by Giemsa staining based microscopic analysis (reference value: 1.701 +/- 0.002); assay type: toxicity, cell-based, Cricetulus griseus; conditions: chinese hamster, cho-k1, 24 h
Macrophage [14] = test: Inhibition of LPS-induced TNFalpha production in Swiss albino mouse macrophages at 6.2 uM after 24 hrs by ELISA relative to control; assay type: functional
CHO-K1 [15] = test: Mutagenicity in CHOK1 cells assessed as nuclear division index at 50 uM after 24 hrs by Giemsa staining based microscopic analysis (reference value: 1.701 +/- 0.002); assay type: toxicity, cell-based, Cricetulus griseus; conditions: chinese hamster, cho-k1, 24 h
CHO-K1 [16] = test: Mutagenicity in CHOK1 cells assessed as frequency of micronucleus binucleated cells at 25 to 100 uM after 24 hrs by Giemsa staining based microscopic analysis; assay type: toxicity, cell-based, Cricetulus griseus; conditions: chinese hamster, cho-k1, 24 h
Macrophage [17] = test: Inhibition of LPS-induced TNFalpha production in Swiss albino mouse macrophages at 12.5 uM after 24 hrs by ELISA relative to control; assay type: functional
Macrophage [18] = test: Inhibition of LPS-induced TNFalpha production in Swiss albino mouse macrophages at 25 uM after 24 hrs by ELISA relative to control; assay type: functional
CHO-K1 [19] = test: Cytotoxicity against CHOK1 cells assessed as reduction in cell viability at 50 uM after 24 hrs by XTT assay relative to control; assay type: cell-based, Cricetulus griseus; conditions: chinese hamster, cho-k1, 24 h
[20] = Stability of the compound in pH 7.4 phosphate buffered saline assessed as compound hydrolysis after 4 hrs by UV-HPLC analysis; assay type: physicochemical; conditions: read-out: Drug degradation
CHO-K1 [21] = test: Mutagenicity in CHOK1 cells assessed as nuclear division index at 25 uM after 24 hrs by Giemsa staining based microscopic analysis (reference value: 1.701 +/- 0.002); assay type: toxicity, cell-based, Cricetulus griseus; conditions: chinese hamster, cho-k1, 24 h
K562 [22] = test: Activation of histone H3/H4 acetylation in human K562 cells assessed as increase in […] expression at 6.7 to 12.5 uM after 48 hrs by Western blot analysis; assay type: cell-based
K562 [23] = test: Activation of histone H3 acetylation in human K562 cells at 100 uM after 24 hrs by Western blot analysis; assay type: cell-based
K562 [24] = test: Activation of histone H3/H4 acetylation in human K562 cells assessed as induction of […] production at 100 uM after 96 hrs by Western blot analysis; assay type: cell-based

SMILES: O=C(N/N=C/c1ccc2no[n+]([O-])c2c1)c1cccc(N2C(=O)c3ccccc3C2=O)c1
- Activity (Macrophage [1]): >75%
- Activity (Mus musculus): 40.5%
- inhibition at 100 µM (Platelet): 1.2%

SMILES: COc1cccc2c1C(=O)c1c(O)c3c(c(O)c1C2=O)C[C@@](O)(C(=O)CO)C[C@@H]3O[C@H]1C[C@H](N)[C@H](O)[C@H](C)O1 [DOXORUBICIN]
- Activity_index (CHO-K1 [2]): 1.683

SMILES: O=C(N/N=C/c1ccc2no[n+]([O-])c2c1)c1ccccc1N1C(=O)c2ccccc2C1=O
- Activity (Mus musculus): 30.5%
- inhibition at 100 µM (Platelet): 0%

SMILES: O=C1CCC(N2C(=O)c3ccccc3C2=O)C(=O)N1 (configuration not stated) [THALIDOMIDE]
- inhibition at 50 µM (Macrophage [3]): 31.7%

SMILES: O=C(N/N=C/c1c(-c2ccccc2)no[n+]1[O-])c1ccc(N2C(=O)c3ccccc3C2=O)cc1
- Activity (Macrophage [1]): >75%
- Activity (Mus musculus): 44.8%
- inhibition at 100 µM (Platelet): 26.5%

SMILES: O=C(N/N=C/c1c(-c2ccccc2)no[n+]1[O-])c1ccccc1N1C(=O)c2ccccc2C1=O
- Activity (Mus musculus): 36.2%
- inhibition at 100 µM (Platelet): 17.2%

- Activity [6]: inactive
- Activity [8]: inactive
- degraded at 4 h [20]: 30%
SMILES: O=C(N/N=C/c1ccc(Oc2no[n+]([O-])c2S(=O)(=O)c2ccccc2)cc1)c1ccc(N2C(=O)c3ccccc3C2=O)cc1
- Activity (CHO-K1 [4]): Non-Toxic
- Activity (CHO-K1 [5]): Non-Toxic
- Activity (K562 [7]): Active
- Activity (K562 [9]): Active
- Activity (CHO-K1 [10]): <= 30%
- Activity (CHO-K1 [11]): Non-Toxic
- Activity (CHO-K1 [12]): 4%
- Activity (Macrophage [1]): >75%
- Activity_index (CHO-K1 [13]): 1.697
- inhibition at 6.2 µM (Macrophage [14]): 41%
- Activity (Mus musculus): 50.1%
- inhibition at 100 µM (Platelet): 76.1%
- Activity_index (CHO-K1 [15]): 1.69
- Activity (CHO-K1 [16]): Non-Toxic
- inhibition at 12.5 µM (Macrophage [17]): 54.2%
- inhibition at 25 µM (Macrophage [18]): 76.5%
- Activity (CHO-K1 [19]): 14%
- Activity_index (CHO-K1 [21]): 1.691

- Activity [6]: inactive
- Activity [8]: Active
SMILES: O=C(N/N=C/c1cccc(Oc2no[n+]([O-])c2S(=O)(=O)c2ccccc2)c1)c1ccc(N2C(=O)c3ccccc3C2=O)cc1
- Activity (K562 [22]): Active
- Activity (Macrophage [1]): >75%
- inhibition at 6.2 µM (Macrophage [14]): 61%
- Activity (Mus musculus): 42%
- inhibition at 100 µM (Platelet): 84%
- Activity (K562 [23]): Active
- inhibition at 12.5 µM (Macrophage [17]): 64.9%
- inhibition at 25 µM (Macrophage [18]): 73.6%
- Activity (K562 [24]): Active

SMILES: O=C(N/N=C/c1ccc2no[n+]([O-])c2c1)c1ccc(N2C(=O)c3ccccc3C2=O)cc1
- inhibition at 50 µM (Macrophage [3]): 54.5%
- Activity (Macrophage [1]): >75%
- Activity (Mus musculus): 48.3%
- inhibition at 100 µM (Platelet): 2.8%
- inhibition at 12.5 µM (Macrophage [17]): 99.9%
- inhibition at 25 µM (Macrophage [18]): 99.5%

SMILES: Cc1c(N(C)CS(=O)(=O)[O-])c(=O)n(-c2ccccc2)n1C.[Na+] [DIPYRONE SODIUM]
- Activity (Mus musculus): 35%

SMILES: CC(=O)Oc1ccccc1C(=O)O [ASPIRIN]
- inhibition at 100 µM (Platelet): 5%
